Read-outs that look alike come from different tables or passages of the source.
Columns and labels:
[1] = biological target: His-Brd2(60-472) (Homo sapiens (Human), UniProt P25440); assay: TR-FRET in-vitro binding assay for BRD2; conditions: biochemical
Procedure, shortened: (§1)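 Eight-point dilution series tested against in-house His-BRD2(60-472), BRD3(20-477) or BRD4(44-477) (45 nM in dispensed solution) binding acetyl-histone H4 (AcK5,8,12,16; 60 nM in dispensed solution). Incubation 35 min at 30 °C, pH 7.5 HEPES buffer; detection by TR-FRET using Eu-anti-His6 and streptavidin-allophycocyanin.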

[2] = tested on: THP-1 cells; assay: Cell growth inhibition assay (CellTiter-Glo), THP-1; assay type: cell-based; conditions: Homo sapiens, read-out: THP-1 TGI
Procedure, shortened: (§2)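 CTG luminescence (cellular ATP) after compound treatment; values background- and day 0-corrected, vehicle (0.1% DMSO) = 100%, medium only = −100%. Dose range: 3-fold dilutions from 10 μM. IC50/TGI by 4-parameter fit.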

[3] = tested on: MV-4-11 cells; assay: Cell growth inhibition assay (CellTiter-Glo), MV-4-11; assay type: cell-based; conditions: Homo sapiens, MV4-11, read-out: MV-4-11 TGI
Procedure, shortened: as §2

[4] = tested on: K-562 cells; assay: Cell growth inhibition assay (CellTiter-Glo), K-562; assay type: cell-based, human
Procedure, shortened: as §2

[5] = biological target: His-Brd3(20-477) (Homo sapiens (Human), UniProt Q15059); assay: TR-FRET in-vitro binding assay for BRD3; conditions: biochemical
Chain of His-Brd3(20-477) (Q15059 20-477): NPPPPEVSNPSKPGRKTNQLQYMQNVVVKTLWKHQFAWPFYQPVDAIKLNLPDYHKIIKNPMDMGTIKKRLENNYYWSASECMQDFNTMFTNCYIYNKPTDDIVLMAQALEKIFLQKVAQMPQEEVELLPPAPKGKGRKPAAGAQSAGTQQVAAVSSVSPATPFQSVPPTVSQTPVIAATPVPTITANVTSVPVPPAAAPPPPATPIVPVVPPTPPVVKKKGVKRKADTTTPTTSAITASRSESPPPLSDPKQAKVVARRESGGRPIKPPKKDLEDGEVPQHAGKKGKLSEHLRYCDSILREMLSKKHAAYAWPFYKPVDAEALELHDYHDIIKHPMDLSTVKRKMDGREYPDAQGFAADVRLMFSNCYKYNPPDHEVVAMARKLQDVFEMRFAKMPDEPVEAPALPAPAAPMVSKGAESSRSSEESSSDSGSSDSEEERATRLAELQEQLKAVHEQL
Procedure, shortened: as §1

[6] = Homo sapiens, K562, read-out: K-562 TGI

Chain of His-Brd2(60-472) (P25440 60-472): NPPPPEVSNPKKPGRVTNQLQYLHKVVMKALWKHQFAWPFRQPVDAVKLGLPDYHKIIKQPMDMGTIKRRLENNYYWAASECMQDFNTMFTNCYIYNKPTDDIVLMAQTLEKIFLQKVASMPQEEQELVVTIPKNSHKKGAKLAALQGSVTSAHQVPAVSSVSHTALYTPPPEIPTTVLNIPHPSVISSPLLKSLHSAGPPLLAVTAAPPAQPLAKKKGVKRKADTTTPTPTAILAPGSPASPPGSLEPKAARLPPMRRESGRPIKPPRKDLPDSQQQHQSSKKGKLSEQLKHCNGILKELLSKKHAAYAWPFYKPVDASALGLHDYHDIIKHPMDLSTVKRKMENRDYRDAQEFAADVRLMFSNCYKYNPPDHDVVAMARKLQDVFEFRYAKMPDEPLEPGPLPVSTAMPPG

SMILES | IC50 [1] [nM] | IC (total growth inhibition) [2] [µM] | IC (total growth inhibition) [3] [µM] | IC (total growth inhibition) [4, 6] [µM] | IC50 [5] [nM] | IC (total growth inhibition) ([4]; read-out: K-562 TGI) [µM]
CCc1c2c(nn1C(=O)N(C)C)C(=O)N(c1cc(C)c(=O)n(C)c1)C2c1ccc(Cl)cc1 (centres unmarked) [Example 148, 4-(4-chlorophenyl)-5-(1,5-dimethyl-6-oxo-1,6-dihydropyridin-3-yl)-3-ethyl-N,N-dimethyl-6-oxo-5,6-dihydropyrrolo[3,4-c]pyrazole-2(4H)-carboxamide] | 220 | 0.372 | 0.114 | > 10 | 160 | 
CCc1nn(C2CC2)c2c1[C@@H](c1ccc(Cl)cc1)N(c1cc(C)c3nnc(C)n3c1)C2=O [Example 107, (R)-4-(4-chlorophenyl)-1-cyclopropyl-5-(3,8-dimethyl-[1,2,4]triazolo[4,3-a]pyridin-6-yl)-3-ethyl-4,5-dihydropyrrolo[3,4-c]pyrazol-6(1H)-one] | 14 | 0.0199 | 0.0113 | > 10 | 13 | 
CCc1nn(C2CC2)c2c1[C@H](c1ccc(Cl)cc1)N(c1cc(C)c3nnc(C)n3c1)C2=O [Example 106, (S)-4-(4-chlorophenyl)-1-cyclopropyl-5-(3,8-dimethyl-[1,2,4]triazolo[4,3-a]pyridin-6-yl)-3-ethyl-4,5-dihydropyrrolo[3,4-c]pyrazol-6(1H)-one] | 2900 | 4.68 | 1.48 | > 10 | 4400 | 
CC(=O)N1CC(n2nc(C)c3c2C(=O)N(c2cc(C)c(=O)n(C)c2)C3c2ccc(Cl)cc2)C1 (centres unmarked) [Example 153, 1-(1-acetylazetidin-3-yl)-4-(4-chlorophenyl)-5-(1,5-dimethyl-6-oxo-1,6-dihydropyridin-3-yl)-3-methyl-4,5-dihydropyrrolo[3,4-c]pyrazol-6(1H)-one] | 160 | 0.515 | 0.161 | > 10 | 130 | 
Cc1cc(N2C(=O)c3nn(C4COC4)c(C)c3C2c2ccc(Cl)cc2)cn2c(C)nnc12 (centres unmarked) [Example 136, 4-(4-chlorophenyl)-5-(3,8-dimethyl-[1,2,4]triazolo[4,3-a]pyridin-6-yl)-3-methyl-2-(oxetan-3-yl)-4,5-dihydropyrrolo[3,4-c]pyrazol-6(2H)-one] | 140 | 0.186 | 0.041 | > 10 | 130 | 
COc1ncccc1-n1nc(C)c2c1C(=O)N(c1cc(C)c(=O)n(C)c1)[C@@H]2c1ccc(Cl)cc1 [Example 128, (R)-4-(4-chlorophenyl)-5-(1,5-dimethyl-6-oxo-1,6-dihydropyridin-3-yl)-1-(2-methoxypyridin-3-yl)-3-methyl-4,5-dihydropyrrolo[3,4-c]pyrazol-6(1H)-one] | 30 | 0.107 | 0.0734 | > 10 | 37 | 
Cc1nn(C2COC2)c2c1C(c1ccc(Cl)cc1)N(c1cc(C)c(=O)n(C)c1)C2=O (centres unmarked) [Example 135, 4-(4-chlorophenyl)-5-(1,5-dimethyl-6-oxo-1,6-dihydropyridin-3-yl)-3-methyl-1-(oxetan-3-yl)-4,5-dihydropyrrolo[3,4-c]pyrazol-6(1H)-one] | 150 | 0.2 | 0.126 | > 10 | 130 | 
Cc1cc(N2C(=O)c3nn(C4CC4)c(C)c3C2c2ccc(Cl)cc2)cn2c(C)nnc12 (centres unmarked) [Example 93, 4-(4-chlorophenyl)-2-cyclopropyl-5-(3,8-dimethyl-[1,2,4]triazolo[4,3-a]pyridin-6-yl)-3-methyl-4,5-dihydropyrrolo[3,4-c]pyrazol-6(2H)-one] | 45 | 0.0518 | 0.0226 | > 10 | 31 | 
Cc1nn(-c2ccnn2C)c2c1[C@@H](c1ccc(Cl)cc1)N(c1cc(C)c3nnc(C)n3c1)C2=O [Example 125, (R)-4-(4-chlorophenyl)-5-(3,8-dimethyl-[1,2,4]triazolo[4,3-a]pyridin-6-yl)-3-methyl-1-(1-methyl-1H-pyrazol-5-yl)-4,5-dihydropyrrolo[3,4-c]pyrazol-6(1H)-one] | 32 | 0.0473 | 0.0399 | > 10 | 32 | 
Cc1nn(C2CC2)c2c1[C@@H](c1ccc(Cl)cc1)N(c1cc(Cl)c(=O)n(C)c1)C2=O [Example 51, (R)-5-(5-chloro-1-methyl-6-oxo-1,6-dihydropyridin-3-yl)-4-(4-chlorophenyl)-1-cyclopropyl-3-methyl-4,5-dihydropyrrolo[3,4-c]pyrazol-6(1H)-one] | 17 | 0.126 | 0.0883 | > 10 | 21 | 
CCc1nn(C)c2c1C(c1ccc(Cl)cc1)N(c1cc(OC)c3nnc(C)n3c1)C2=O (centres unmarked) [Example 105, 4-(4-chlorophenol)-3-ethyl-5-(8-methoxy-3-methyl-[1,2,4]triazolo[4,3-a]pyridin-6-yl)-1-methyl-4,5-dihydropyrrolo[3,4-c]pyrazol-6(1H)-one] | 130 | 0.335 | 0.164 | > 10 | 150 | 
Cc1nn(C[C@H](O)C(F)(F)F)c2c1[C@@H](c1ccc(Cl)cc1)N(c1cc(C)c3nnc(C)n3c1)C2=O [Example 167, (R)-4-(4-chlorophenyl)-5-(3,8-dimethyl-[1,2,4]triazolo[4,3-a]pyridin-6-yl)-3-methyl-1-((S)-3,3,3-trifluoro-2-hydroxypropyl)-4,5-dihydropyrrolo[3,4-c]pyrazol-6(1H)-one] | 42 | 0.117 | 0.0433 | > 10 | 45 | 
Cc1cc(N2C(=O)c3c(cnn3C3CC3)C2c2ccc(Cl)cc2)cn(C)c1=O (centres unmarked) [Example 34, 4-(4-chlorophenyl)-1-cyclopropyl-5-(1,5-dimethyl-6-oxo-1,6-dihydropyridin-3-yl)-4,5-dihydropyrrolo[3,4-c]pyrazol-6(1H)-one] | 95 | 0.321 | 0.14 | > 10 | 110 | 
Cc1nn(C2CC2)c2c1C(c1ccc(OC(F)(F)F)cc1)N(c1cc(C)c(=O)n(C)c1)C2=O (centres unmarked) [Example 95, 1-cyclopropyl-5-(1,5-dimethyl-6-oxo-1,6-dihydropyridin-3-yl)-3-methyl-4-(4-(trifluoromethoxy)phenyl)-4,5-dihydropyrrolo[3,4-c]pyrazol-6(1H)-one] | 63 | 0.411 | 0.27 | > 10 | 73 | 
Cc1nn(C2CC2)c2c1[C@@H](c1ccc(Cl)cc1)N(c1cc(C)c3nnc(C)n3n1)C2=O [Example 122, (R)-4-(4-chlorophenyl)-1-cyclopropyl-5-(3,8-dimethyl-[1,2,4]triazolo[4,3-b]-pyridazin-6-yl)-3-methyl-4,5-dihydropyrrolo[3,4-c]pyrazol-6(1H)-one] |  | 0.0107 | 0.00842 | > 10 |  | 
Cc1nn(-c2ccnn2C)c2c1C(c1ccc(Cl)cc1)N(c1cc(C)c(=O)n(C)c1)C2=O (racemic) [Example 74, 4-(4-chlorophenyl)-5-(1,5-dimethyl-6-oxo-1,6-dihydropyridin-3-yl)-3-methyl-1-(1-methyl-1H-pyrazol-5-yl)-4,5-dihydropyrrolo[3,4-c]pyrazol-6(1H)-one] | 71 |  |  |  | 91 | >10
CC(=O)Nc1cc(N2C(=O)c3c(c(C)nn3C3CC3)C2c2ccc(Cl)cc2)nn2c(C)nnc12 (centres unmarked) [Example 126, N-(6-(4-(4-chlorophenyl)-1-cyclopropyl-3-methyl-6-oxopyrrolo[3,4-c]pyrazol-5-(1H,4H,6H)-yl)-3-methyl-[1,2,4]triazolo[4,3-b]pyridazin-8-yl)acetamide] |  | 1.15 | 0.682 | > 10 | > 37000 | 
COc1c2c(nn1C)C(=O)N(c1cc(C)c(=O)n(C)c1)C2c1ccc(Cl)cc1 (centres unmarked) [Example 77, 4-(4-chlorophenyl)-5-(1,5-dimethyl-6-oxo-1,6-dihydropyridin-3-yl)-3-methoxy-2-methyl-4,5-dihydropyrrolo[3,4-c]pyrazol-6(2H)-one] |  | 0.37 | 0.132 | > 10 |  | 
COCc1nn(C2CC2)c2c1C(c1ccc(Cl)cc1)N(c1cc(C)c3nnc(C)n3c1)C2=O (centres unmarked) [Example 130, 4-(4-chlorophenyl)-1-cyclopropyl-5-(3,8-dimethyl-[1,2,4]triazolo[4,3-a]pyridin-6-yl)-3-(methoxymethyl)-4,5-dihydropyrrolo[3,4-c]pyrazol-6(1H)-one] |  | 0.0813 | 0.0267 | > 10 |  | 
COc1ncc(-n2nc(C)c3c2C(=O)N(c2cc(C)c(=O)n(C)c2)C3c2ccc(Cl)cc2)c(OC)n1 (racemic) [Example 52, 4-(4-chlorophenyl)-1-(2,4-dimethoxypyrimidin-5-yl)-5-(1,5-dimethyl-6-oxo-1,6-dihydropyridin-3-yl)-3-methyl-4,5-dihydropyrrolo[3,4-c]pyrazol-6(1H)-one] | 63 |  |  |  | 69 | >10
